# “And” between values parts separate entries of the source, which are not always exact repeats. Equal entries are not always repeated.
# What was measured:
# [1] = system: HL-60 (promyelocytic leukemia); test: MTT anti-proliferative assay, HL-60; format: cell-based; conditions: Homo sapiens, 48 h
# Procedure: (§1) For the in vitro assays, a stock solution (1% DMSO in the appropriate buffer with the tested compound diluted under sonication) was prepared from which several dilutions were made with the appropriate buffer.
# Human cell lines were obtained from the Institute of Cytology, Russian Academy of Sciences. […] Plates were incubated under standard conditions for 48 h.
# [2] = system: MCF-7 (breast adenocarcinoma); test: MTT anti-proliferative assay, MCF-7; format: cell-based; conditions: Homo sapiens, MCF7, 48 h
# Procedure: (§2) To determine the selectivity of the synthesized compounds 7–16 toward various cancer cells and normal human cells, the anti-proliferative activity against K562 (chronic myelogenous leukemia), HL-60 (promyelocytic leukemia), MCF-7 (breast adenocarcinoma), HeLa (cervix carcinoma), HepG2 (human liver cancer), A549 (lung carcinoma), OKP-GS (renal cell carcinoma), and normal cells RPMI 1788 (B lymphocyte, the human cell line) was investigated.
# as §1, with “Each in vitro experiment was performed at least in triplicate and the standard deviation of absorbance was less than 10% of the mean. For” for “For”
# (§3) Human cell lines were obtained from the Institute of Cytology, Russian Academy of Sciences. The cell lines studied were maintained in RPMI 1640 medium (AppliChem, Darmstadt, Germany) supplemented with 20% (HL-60, RPMI 1788) fetal calf serum (HyClone, Cramlington, UK), in DMEM (A 549) and Eagle’s MEM (AppliChem) (MCF7, HeLa) with 10% fetal calf serum (HyClone). Cells were cultivated at 37 °C in a humidified atmosphere of 5% CO2. Cellular sensitivities to synthesized compounds and standards were measured with the MTT assay. Cells were plated in triplicate in 96-well plates (10^5 cells/well for suspended cell cultures and 5 × 10^3 cells/well for monolayer cultures); on the same day (suspended cell cultures) or on the following day (monolayer cultures), compounds were added at the appropriate dilutions. Anti-proliferative activity was studied at concentrations 0.1–50.0 µM. The reference drugs were imatinib, sorafenib and nilotinib. Plates were incubated under standard conditions for 48 h. Thereafter, 10 μL MTT (Sigma) in phosphate-buffered saline (5 mg/mL) was added. The plates were incubated for an additional 4 h and 150 μL dimethylsulphoxide (DMSO) was added to dissolve the formazan crystals. The optical density was read on a HALO MPR-95 Microplate Reader (Dynamica Scientific Ltd., Melbourne, Victoria, Australia) at 570 nm. The antiproliferative effects were taken as degrees of inhibition of tumor cells (%). The average of three parallel measurements was calculated for each concentration of test compound. The degree of cell growth suppression was plotted as a function of the logarithm of the concentration. The half maximal inhibitory concentration (IC50) was determined graphically for active compounds.
# [3] = system: HeLa (cervix carcinoma); test: MTT anti-proliferative assay, HeLa; format: cell-based; conditions: Homo sapiens, 48 h
# Procedure: as §2
# as §1, with “Each in vitro experiment was performed at least in triplicate and the standard deviation of absorbance was less than 10% of the mean. For” for “For”
# as §3
# [4] = system: HepG2 (human liver cancer); test: MTT anti-proliferative assay, HepG2; format: cell-based; conditions: 48 h
# Procedure: as §2
# as §1, with “Each in vitro experiment was performed at least in triplicate and the standard deviation of absorbance was less than 10% of the mean. For” for “For”
# as §3
# [5] = system: A549 (lung carcinoma); test: MTT anti-proliferative assay, A549; format: cell-based; conditions: Homo sapiens, 48 h
# Procedure: as §2
# as §1, with “Each in vitro experiment was performed at least in triplicate and the standard deviation of absorbance was less than 10% of the mean. For” for “For”
# as §3
# [6] = system: OKP-GS (renal cell carcinoma); test: MTT anti-proliferative assay, OKP-GS; format: cell-based; conditions: Homo sapiens, 48 h
# Procedure: as §2
# as §1, with “Each in vitro experiment was performed at least in triplicate and the standard deviation of absorbance was less than 10% of the mean. For” for “For”
# as §3
# [7] = biological target: T1, Bcr–Abl1 kinase (Homo sapiens, UniProt P00519); test: Abl1 Kinase Enzyme System / ADP-Glo kinase assay; format: biochemical; conditions: ATP 50 μM; for inhibition at 0.5 µM: 0.5 µM compound; for inhibition at 10 µM: 10 µM compound
# T1 construct: purchased Promega
# Procedure: (§4) At the end, 10 μL of kinase detection reagent was added into the well and incubated for 30 min to produce a luminescence signal.
# [8] = biological target: T2, EGFR (Homo sapiens, UniProt P00533); test: Kinase Selectivity Profiling System TK-1 / ADP-Glo, EGFR; format: biochemical
# T2 construct: purchased Promega
# Procedure: as §4
# [9] = biological target: T3, HER2 (Homo sapiens, UniProt P04626); test: Kinase Selectivity Profiling System TK-1 / ADP-Glo, HER2; format: biochemical
# T3 construct: purchased Promega
# Procedure: as §4
# [10] = biological target: T4, HER4 (Homo sapiens, UniProt Q15303); test: Kinase Selectivity Profiling System TK-1 / ADP-Glo, HER4; format: biochemical
# T4 construct: purchased Promega
# Procedure: as §4
# [11] = biological target: T5, IGF1R (Homo sapiens, UniProt P08069); test: Kinase Selectivity Profiling System TK-1 / ADP-Glo, IGF1R; format: biochemical
# T5 construct: purchased Promega
# Procedure: as §4
# [12] = biological target: T6, InsR (Homo sapiens, UniProt P06213); test: Kinase Selectivity Profiling System TK-1 / ADP-Glo, InsR; format: biochemical
# T6 construct: purchased Promega
# Procedure: as §4
# [13] = biological target: T7, KDR (VEGFR-2) (Homo sapiens, UniProt P35968); test: Kinase Selectivity Profiling System TK-1 / ADP-Glo, KDR; format: biochemical
# T7 construct: purchased Promega
# Procedure: as §4
# [14] = biological target: T8, PDGFRβ (Homo sapiens, UniProt P09619); test: Kinase Selectivity Profiling System TK-1 / ADP-Glo, PDGFRβ; format: biochemical
# T8 construct: purchased Promega
# Procedure: as §4
# [15] = system: OKP-GS cells; test: Cell cycle distribution, propidium iodide staining, flow cytometry; format: cell-based, human; conditions: 72 h
# Procedure: To assess changes in the distribution of cells by phases of the cell cycle, we used the method of staining fixed samples with propidium iodide (Calbiochem, USA). Pre-fixation of cells was carried out with 70% ethanol for […]. To exclude the binding of propidium iodide to RNA, the fixed samples were treated with RNAse A at a final concentration of 50 μg/mL (R4875, Sigma, St. Louis, MI, USA) for 15 min at 37 °C [34, 35].
# Tumor cells were seeded on a 6-well plate at a density of 200.000 per well for HL-60 and 100.000 per well for OKP-GS. Test compounds 7 and 10 were added at concentrations of 5, 10, and 20 μM for 72 h. Then, the cells were washed from the culture medium by centrifugation at 1000 rpm for 5 min, washed again with PBS, then fixed with ice-cold ethanol during constant shaking and incubated at −20 °C for 24 h. After that, we washed it from alcohol by centrifugation, washed it again with PBS and added a solution containing 100 μg/mL RNase A and 10 μg/mL propidium iodide (PI), incubated for 40 min in the dark and measure it on a Cytomics FC500 Beckman Coulter flow cytometer (FL4 channel for PI). Received data were analyzed with the help of Kaluza 2.0 Software (Beckman Coulter, Brea, CA, USA).
# T4 sequence (Q15303 26-1308): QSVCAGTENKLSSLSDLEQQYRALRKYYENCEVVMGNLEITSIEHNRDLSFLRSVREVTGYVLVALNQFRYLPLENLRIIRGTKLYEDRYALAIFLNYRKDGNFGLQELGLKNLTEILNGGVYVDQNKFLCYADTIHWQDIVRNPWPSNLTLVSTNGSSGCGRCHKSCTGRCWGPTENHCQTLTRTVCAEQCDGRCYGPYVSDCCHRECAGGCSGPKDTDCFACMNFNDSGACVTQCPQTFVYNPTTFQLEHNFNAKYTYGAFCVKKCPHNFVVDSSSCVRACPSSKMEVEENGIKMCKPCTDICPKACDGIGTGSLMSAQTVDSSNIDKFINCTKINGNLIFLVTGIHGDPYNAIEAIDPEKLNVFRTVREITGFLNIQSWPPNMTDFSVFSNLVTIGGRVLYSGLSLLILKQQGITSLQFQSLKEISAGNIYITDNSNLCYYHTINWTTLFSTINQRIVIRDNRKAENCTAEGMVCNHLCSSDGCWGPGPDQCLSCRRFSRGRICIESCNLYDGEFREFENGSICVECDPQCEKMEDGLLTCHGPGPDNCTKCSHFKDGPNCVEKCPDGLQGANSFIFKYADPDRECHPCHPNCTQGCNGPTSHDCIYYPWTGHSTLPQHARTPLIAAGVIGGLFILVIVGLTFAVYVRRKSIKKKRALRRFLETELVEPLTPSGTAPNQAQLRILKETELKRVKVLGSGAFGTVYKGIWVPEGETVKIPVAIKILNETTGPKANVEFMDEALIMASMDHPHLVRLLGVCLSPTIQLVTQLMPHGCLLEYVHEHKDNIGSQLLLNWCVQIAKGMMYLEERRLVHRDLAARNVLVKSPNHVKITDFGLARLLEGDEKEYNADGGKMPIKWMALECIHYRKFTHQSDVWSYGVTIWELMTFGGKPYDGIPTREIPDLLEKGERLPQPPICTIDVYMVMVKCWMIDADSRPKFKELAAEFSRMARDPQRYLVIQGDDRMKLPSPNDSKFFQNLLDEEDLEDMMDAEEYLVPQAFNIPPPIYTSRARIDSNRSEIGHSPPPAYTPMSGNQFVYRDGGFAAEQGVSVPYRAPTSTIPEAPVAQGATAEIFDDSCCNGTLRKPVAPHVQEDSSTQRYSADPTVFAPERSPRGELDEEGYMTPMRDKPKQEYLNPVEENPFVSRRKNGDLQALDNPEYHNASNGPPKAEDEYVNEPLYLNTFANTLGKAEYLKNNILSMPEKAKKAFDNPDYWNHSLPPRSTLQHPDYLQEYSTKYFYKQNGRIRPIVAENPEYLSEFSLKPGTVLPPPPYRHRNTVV
# T3 sequence (P04626 23-1255): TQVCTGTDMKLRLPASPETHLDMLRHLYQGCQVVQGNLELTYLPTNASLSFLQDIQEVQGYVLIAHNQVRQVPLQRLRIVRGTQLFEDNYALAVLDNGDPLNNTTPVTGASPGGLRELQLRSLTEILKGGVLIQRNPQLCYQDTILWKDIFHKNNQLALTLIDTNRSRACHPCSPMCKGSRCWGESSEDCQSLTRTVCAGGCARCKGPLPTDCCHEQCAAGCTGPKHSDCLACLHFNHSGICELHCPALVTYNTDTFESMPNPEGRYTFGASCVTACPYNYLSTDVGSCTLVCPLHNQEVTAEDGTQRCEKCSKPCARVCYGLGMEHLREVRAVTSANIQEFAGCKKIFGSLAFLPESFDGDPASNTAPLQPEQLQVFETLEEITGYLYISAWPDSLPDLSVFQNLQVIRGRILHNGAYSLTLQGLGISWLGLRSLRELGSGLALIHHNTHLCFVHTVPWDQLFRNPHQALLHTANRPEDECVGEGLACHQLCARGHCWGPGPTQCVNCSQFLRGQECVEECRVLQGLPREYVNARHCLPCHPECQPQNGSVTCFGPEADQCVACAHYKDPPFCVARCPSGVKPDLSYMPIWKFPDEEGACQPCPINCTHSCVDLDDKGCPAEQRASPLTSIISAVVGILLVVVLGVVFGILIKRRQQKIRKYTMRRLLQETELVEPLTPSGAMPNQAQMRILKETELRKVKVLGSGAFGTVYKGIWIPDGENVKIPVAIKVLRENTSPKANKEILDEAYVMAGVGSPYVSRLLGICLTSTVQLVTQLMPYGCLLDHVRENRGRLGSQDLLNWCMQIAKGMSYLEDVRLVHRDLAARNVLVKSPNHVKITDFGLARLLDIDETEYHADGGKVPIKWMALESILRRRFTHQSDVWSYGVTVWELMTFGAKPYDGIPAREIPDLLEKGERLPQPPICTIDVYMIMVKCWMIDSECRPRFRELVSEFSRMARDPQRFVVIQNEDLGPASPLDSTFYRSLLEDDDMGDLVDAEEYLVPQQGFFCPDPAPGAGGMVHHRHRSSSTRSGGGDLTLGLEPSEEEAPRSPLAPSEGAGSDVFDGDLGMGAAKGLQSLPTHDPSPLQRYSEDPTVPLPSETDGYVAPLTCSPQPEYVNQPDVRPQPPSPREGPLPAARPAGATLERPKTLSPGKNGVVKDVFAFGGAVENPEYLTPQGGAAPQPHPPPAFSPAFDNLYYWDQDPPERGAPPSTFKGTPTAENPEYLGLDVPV
# T2 sequence (P00533 25-1210): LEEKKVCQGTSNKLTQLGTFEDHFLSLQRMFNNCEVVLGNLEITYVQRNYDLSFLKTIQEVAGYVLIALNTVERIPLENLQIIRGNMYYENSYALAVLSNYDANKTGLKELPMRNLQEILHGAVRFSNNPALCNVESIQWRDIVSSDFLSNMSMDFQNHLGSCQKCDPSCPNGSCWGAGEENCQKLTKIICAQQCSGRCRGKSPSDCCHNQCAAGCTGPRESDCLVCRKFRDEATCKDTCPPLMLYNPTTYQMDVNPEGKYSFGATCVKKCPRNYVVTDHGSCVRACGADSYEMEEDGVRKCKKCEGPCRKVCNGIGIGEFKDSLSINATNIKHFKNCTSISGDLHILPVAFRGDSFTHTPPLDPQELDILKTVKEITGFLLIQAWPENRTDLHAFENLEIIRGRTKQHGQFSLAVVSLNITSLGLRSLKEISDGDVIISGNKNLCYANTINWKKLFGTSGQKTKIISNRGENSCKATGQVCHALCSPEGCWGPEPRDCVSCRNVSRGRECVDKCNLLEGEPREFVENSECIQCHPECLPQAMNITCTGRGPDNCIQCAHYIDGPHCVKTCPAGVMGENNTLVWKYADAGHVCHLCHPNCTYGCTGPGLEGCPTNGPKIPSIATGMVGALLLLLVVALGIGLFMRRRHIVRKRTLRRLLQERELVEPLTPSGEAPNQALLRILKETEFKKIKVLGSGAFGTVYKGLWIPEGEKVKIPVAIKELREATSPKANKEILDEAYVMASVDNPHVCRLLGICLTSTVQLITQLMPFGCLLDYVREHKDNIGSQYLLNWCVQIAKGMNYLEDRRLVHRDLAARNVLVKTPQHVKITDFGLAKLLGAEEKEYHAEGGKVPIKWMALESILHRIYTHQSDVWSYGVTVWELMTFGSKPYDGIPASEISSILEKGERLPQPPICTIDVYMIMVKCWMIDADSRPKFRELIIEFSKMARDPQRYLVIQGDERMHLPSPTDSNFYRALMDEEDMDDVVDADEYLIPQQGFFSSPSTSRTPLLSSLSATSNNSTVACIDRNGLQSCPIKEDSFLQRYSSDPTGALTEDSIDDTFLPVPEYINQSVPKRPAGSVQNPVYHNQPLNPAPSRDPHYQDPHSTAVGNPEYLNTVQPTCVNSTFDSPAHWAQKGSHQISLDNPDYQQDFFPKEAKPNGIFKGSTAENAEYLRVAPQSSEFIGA
# T7 sequence (P35968 20-1356): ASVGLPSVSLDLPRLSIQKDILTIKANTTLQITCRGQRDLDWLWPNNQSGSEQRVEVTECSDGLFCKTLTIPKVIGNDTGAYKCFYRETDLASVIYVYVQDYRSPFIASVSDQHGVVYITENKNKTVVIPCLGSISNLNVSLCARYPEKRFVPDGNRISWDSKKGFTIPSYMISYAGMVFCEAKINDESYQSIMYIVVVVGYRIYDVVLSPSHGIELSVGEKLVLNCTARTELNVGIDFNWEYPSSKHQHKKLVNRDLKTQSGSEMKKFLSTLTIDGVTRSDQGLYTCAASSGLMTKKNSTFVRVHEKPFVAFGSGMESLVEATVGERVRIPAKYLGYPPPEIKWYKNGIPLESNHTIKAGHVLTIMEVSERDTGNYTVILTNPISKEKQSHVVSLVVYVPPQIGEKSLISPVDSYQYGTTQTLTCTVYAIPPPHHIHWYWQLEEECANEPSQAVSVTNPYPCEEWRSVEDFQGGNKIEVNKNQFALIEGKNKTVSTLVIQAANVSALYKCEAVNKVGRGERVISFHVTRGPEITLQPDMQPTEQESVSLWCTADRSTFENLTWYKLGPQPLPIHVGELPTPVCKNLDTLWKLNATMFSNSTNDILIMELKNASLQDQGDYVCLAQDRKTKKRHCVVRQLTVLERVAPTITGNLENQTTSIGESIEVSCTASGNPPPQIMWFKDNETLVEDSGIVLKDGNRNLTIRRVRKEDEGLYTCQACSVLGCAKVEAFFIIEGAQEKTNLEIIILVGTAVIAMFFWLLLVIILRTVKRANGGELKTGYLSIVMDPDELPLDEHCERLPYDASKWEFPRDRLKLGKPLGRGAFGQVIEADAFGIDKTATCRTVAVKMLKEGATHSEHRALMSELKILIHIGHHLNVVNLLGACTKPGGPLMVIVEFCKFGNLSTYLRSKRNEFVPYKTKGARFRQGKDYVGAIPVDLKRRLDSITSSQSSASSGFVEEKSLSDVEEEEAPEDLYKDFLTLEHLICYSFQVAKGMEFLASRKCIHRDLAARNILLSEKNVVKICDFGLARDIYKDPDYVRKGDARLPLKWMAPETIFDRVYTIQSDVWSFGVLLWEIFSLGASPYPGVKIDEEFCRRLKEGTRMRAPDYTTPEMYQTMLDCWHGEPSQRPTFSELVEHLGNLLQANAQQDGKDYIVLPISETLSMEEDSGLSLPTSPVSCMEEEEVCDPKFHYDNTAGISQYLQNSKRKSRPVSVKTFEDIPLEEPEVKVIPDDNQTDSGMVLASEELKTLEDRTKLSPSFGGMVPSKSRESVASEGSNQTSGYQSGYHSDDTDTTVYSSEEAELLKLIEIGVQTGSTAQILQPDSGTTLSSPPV
Compound,IC50 [1] [µM],IC50 [2] [µM],IC50 [3] [µM],IC50 [4] [µM],IC50 [5] [µM],IC50 [6] [µM],inhibition at 0.5 µM [7] [%],inhibition at 10 µM [7] [%],inhibition at 1 µM [8] [%],inhibition at 1 µM [9] [%],inhibition at 1 µM [10] [%],inhibition at 1 µM [11] [%],inhibition at 1 µM [12] [%],inhibition at 1 µM [13] [%],inhibition at 1 µM [14] [%],melting point [°C],Cells in G1 phase ([15]; 5 μM) [%],Cells in G2/M phase ([15]; 5 μM),Cells in G2/M phase ([15]; 20 μM),Cells in S phase ([15]; 20 μM) [%],other results
"COc1nc(Cl)nc2c1ncn2Cc1ccc(C(=O)Nc2cccc(C(F)(F)F)c2)cc1 [Compound 13, 4-((2-Chloro-6-methoxy-9H-purin-9-yl)methyl)-N-(3-(trifluoromethyl)phenyl)benzamide]",26.1 ± 1.23,14.2 ± 2.71,15.4 ± 1.92,9.16 ± 0.78,13 ± 0.67,15.5 ± 2.27,24,21,29,0,0,0,0,30,17,212 to 214,–,–,–,–,–
"CNC(=O)c1cc(Oc2ccc(NC(=O)Nc3ccc(Cl)c(C(F)(F)F)c3)cc2)ccn1 [Sorafenib, sorafenib, reference compound]",–,13.7 ± 3.08,6.82 ± 2.64,8.4 ± 2.8,6.01 ± 1.27,13.6 ± 1.71,–,–,–,–,–,–,–,–,–,–,–,–,19.7%,17.3,Cells in G1 phase ([15]; 20 μM): 61.9%
"COc1nc(Cl)nc2c1ncn2Cc1ccc(C(=O)Nc2cc(-n3cnc(C)c3)cc(C(F)(F)F)c2)cc1 [Compound 14, 4-((2-Chloro-6-methoxy-9H-purin-9-yl)methyl)-N-(3-(4-methyl-1H-imidazol-1-yl)-5-(trifluoromethyl)phenyl)benzamide]",48.6 ± 3.02,67.4 ± 3.29,33.7 ± 7.49,28.5 ± 1.07,20.1 ± 0.81,10.6 ± 2.88,18,17,9,8,0,0,17,27,20,160 to 162,–,–,–,–,–

# Continued by falling IC50 [1], values first:
IC50 [1] [µM],IC50 [2] [µM],IC50 [3] [µM],IC50 [4] [µM],IC50 [5] [µM],IC50 [6] [µM],inhibition at 0.5 µM [7] [%],inhibition at 10 µM [7] [%],inhibition at 1 µM [8] [%],inhibition at 1 µM [9] [%],inhibition at 1 µM [10] [%],inhibition at 1 µM [11] [%],inhibition at 1 µM [12] [%],inhibition at 1 µM [13] [%],inhibition at 1 µM [14] [%],melting point [°C],Compound,Cells in G1 phase ([15]; 5 μM) [%],Cells in G2/M phase ([15]; 5 μM),Cells in G2/M phase ([15]; 20 μM),Cells in S phase ([15]; 20 μM) [%],other results
7.18,76.8 ± 3.25,–,88.3 ± 2.54,–,–,17,28,0,0,0,0,0,13,33,272 to 274,"Nc1nc(Cl)nc2c1ncn2Cc1ccc(C(=O)Nc2cccc(C(F)(F)F)c2)cc1 [Compound 15, 4-((6-Amino-2-chloro-9H-purin-9-yl)methyl)-N-(3-(trifluoromethyl)phenyl)benzamide]",–,–,–,–,–
1.52 ± 0.66,8.1 ± 1.98,6.05 ± 1.03,12.7 ± 0.7,18 ± 0.73,24.8 ± 3.25,36,43,9,11,0,0,0,16,39,–,"Cc1cn(-c2cc(NC(=O)c3ccc(Cn4cnc5c(Cl)nc(Cl)nc54)cc3)cc(C(F)(F)F)c2)cn1 [Compound 10, 4-((2,6-Dichloro-9H-purin-9-yl)methyl)-N-(3-(4-methyl-1H-imidazol-1-yl)-5-(trifluoromethyl)-phenyl)benzamide]",56.9,24.3%,25.3%,19.3,Cells in S phase ([15]; 5 μM): 16.8%; Cells in G1 phase ([15]; 10 μM): 53.3%; Cells in G2/M phase ([15]; 10 μM): 24.2%; Cells in S phase ([15]; 10 μM): 21.5%
1.42 ± 0.54,12.3 ± 4.07,6.93 ± 1.18,11.3 ± 1.44,26.9 ± 0.64,4.56 ± 1.73,24,16,6,22 to 26,0,0,6,11,36 to 45,–,"O=C(Nc1cccc(C(F)(F)F)c1)c1ccc(Cn2cnc3c(Cl)nc(Cl)nc32)cc1 [Compound 7, 4-((2,6-Dichloro-9H-purin-9-yl)methyl)-N-(3-(trifluoromethyl)phenyl)benzamide]",60.9,23.53% and 23.5%,29.94% and 29.9%,17.4,"% Inhibition at 1 µM, HER2 [9]: 22%; % Inhibition at 1 µM, PDGFRβ [14]: 30%; Cells in S phase ([15]; 5 μM): 14.2%; Cells in G1 phase ([15]; 10 μM): 55.5%; Cells in G2/M phase ([15]; 10 μM): 26.02% and 26.0%; Cells in S phase ([15]; 10 μM): 17.7%; Cells in G1 phase ([15]; 20 μM): 51.2%"

# Source: publication PMC8657793, “Synthesis, In Vitro and In Silico Anticancer Activity of New 4-Methylbenzamide Derivatives Containing 2,6-Substituted Purines as Potential Protein Kinases Inhibitors” (International Journal of Molecular Sciences, 2021)
